This is an account of results in BindingDB's records for patent US10188615 (ACUCELA INC., 2019).

The structures appear in SMILES notation.

In this test the target is T1, Retinoid isomerohydrolase (Human, UniProt Q16518).
T1 sequence (Q16518 whole entry): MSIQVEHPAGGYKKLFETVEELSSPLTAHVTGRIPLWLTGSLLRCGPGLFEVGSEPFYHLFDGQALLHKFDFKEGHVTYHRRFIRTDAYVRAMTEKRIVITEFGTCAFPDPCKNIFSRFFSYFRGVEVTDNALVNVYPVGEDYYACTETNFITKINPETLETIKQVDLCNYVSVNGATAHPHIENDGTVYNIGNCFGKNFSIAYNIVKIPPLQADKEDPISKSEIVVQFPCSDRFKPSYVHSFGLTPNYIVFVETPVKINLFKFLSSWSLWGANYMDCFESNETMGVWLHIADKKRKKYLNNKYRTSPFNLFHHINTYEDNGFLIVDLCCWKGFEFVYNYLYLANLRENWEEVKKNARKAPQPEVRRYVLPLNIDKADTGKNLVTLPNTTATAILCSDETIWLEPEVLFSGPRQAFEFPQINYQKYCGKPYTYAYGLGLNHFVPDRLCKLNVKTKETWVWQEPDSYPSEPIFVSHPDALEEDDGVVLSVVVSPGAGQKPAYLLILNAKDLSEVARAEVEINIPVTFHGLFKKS
Briefly: In Vitro Isomerase Inhibition Assay.
As for `NCCCc1cccc(OC[C@@H]2CCCC[C@H]2O)c1` (relative stereo) [US10188615, Example 148], the IC50 result is “in the range around 55 nM”. For `NCCOc1cccc(OCCCc2ccccc2)c1` [US10188615, Example 89], the concentration for half-maximal inhibition (IC50) result is “in the range around 550 nM”. Next, `NCCCc1cccc(OCC2CCCCCCC2)c1` [US10188615, Example 99]: “in the range around 550 nM”; `CC(C)CCOc1cccc(C(O)CCN)c1` (centres undefined) [US10188615, Example 107]: “in the range around 55 nM”; `NCCS(=O)(=O)c1cccc(OCC2CCCCC2)c1` [US10188615, Example 125]: “in the range around 550 nM”. The entry for `NCCCc1cccc(OCC(O)c2ccccc2)c1` (centres undefined) [US10188615, Example 150] is “in the range around 550 nM”; for `NCCC(O)c1cccc(OCc2c(Cl)cccc2Cl)c1` (centres undefined) [US10188615, Example 105] it is “in the range around 55 nM”. Turning to `NCCCc1cccc(OCCc2ccccc2)c1` [US10188615, Example 70], the half-maximal inhibitory concentration (IC50) result is “in the range around 550 nM”. Next, `NCCCc1cccc(OCC2CCCCO2)c1` (centres undefined) [US10188615, Example 162]: “in the range around 550 nM”. Next, `C[C@H](CN)Oc1cccc(OCC2CCCC2)c1` [US10188615, Example 52]: “in the range around 550 nM”. The entry for `NCCC(O)c1cccc(OCCCOCc2ccccc2)c1` (centres undefined) [US10188615, Example 131] is “in the range around 55 nM”; for `COc1ccccc1COc1cccc(C(O)CCN)c1` (centres undefined) [US10188615, Example 92] it is “in the range around 55 nM”; for `NCCCc1cccc(OCCCCCOCc2ccccc2)c1` [US10188615, Example 136] it is “in the range around 5500 nM”. `NCCOc1cccc(OCCCCCO)c1` [US10188615, Example 143]: the concentration for half-maximal inhibition (IC50) entry was “in the range around 550 nM”. With `NCCNc1cccc(OCC2CCCCC2)c1` [US10188615, Example 129], the IC50 result was “in the range around 550 nM”. Next, `NCCC(O)c1cccc(OCCc2ccccc2)c1` (centres undefined) [US10188615, Example 54]: “in the range around 55 nM”. The entry for `NCCCc1cccc(OCCCCOCc2ccccc2)c1` [US10188615, Example 42] is “in the range around 5500 nM”.

Turning to `NCCOc1cccc(OCCCOCc2ccccc2)c1` [US10188615, Example 94], the IC50 result is “in the range around 550 nM”.

`CC[C@H](CN)[C@@H](O)c1cccc(OCC2CCCCC2)c1` [US10188615, Example 49]: the IC50 entry is “in the range around 55 nM”.

As a reminder, the IC50 is the midpoint of a concentration-inhibition curve.
